The values that follow come from patent publication US11701336B2, “Method of determining composition effective for treating diabetes” (priority 2015, dated 2023).

The subject of data set [1] is diabetic patients. Briefly: Cancer in patients during diabetes mellitus treatment (survey and case reports). In kind it is in vivo, human. To be noted: person. From the text:
On the other hand, it is widely known that the insulin itself may increase the risk of the cancer and many cancer patients can be found in the patients of the diabetes mellitus.

For data set [2] the following is noted: confirmed by manufacturers; cited from earlier work.
The subject of data set [3] is diabetic patients. Put plainly: HbA1c (glycated hemoglobin) of the patient under the prescription. In kind it is in vivo, human. To be noted: person; May 17, 2016, only the new drug (DPP4 inhibitor), before metformin+BCAA.
Excerpt: (1) Step to measure HbA1c and lactate levels in patients
(3) Step to measure changes in HbA1c and lactate levels after administration of the composition to the patient,
Data set [4] has as its system diabetic patients. Put plainly: Blood glucose of the patient (casual, postprandial, glycemic control). In kind it is in vivo, human.
Data set [5] concerns diabetic patients. Briefly: Side effects and clinical course, opinion of the doctor. In kind it is in vivo, human. Conditions: person; 4 mg antihypertensive diuretic. The method, then:
For each prescription example, the glycemic status of the patient that is dependent on the administered active components and the component amount is measured using HbA1c (glycated hemoglobin) along with changes in the lactic acid value, and opinion of the doctor is recorded together with the change in the values.

Turning to `N#C[C@@H]1CCCN1C(=O)CNC12CC3CC(CC(O)(C3)C1)C2` [Equa], in data set [1] (Case (10)), the “Cancer developed during diabetes mellitus treatment” value was “a bowel cancer was developed”.
As for `O=C(O)[C@H](CC(=O)N1C[C@H]2CCCC[C@H]2C1)Cc1ccccc1` [GLUFAST], the Lactic acidosis result in data set [2] is on record as “do not cause lactic acidosis”.
For the compound `N[C@@H](CC(=O)N1CCn2c(nnc2C(F)(F)F)C1)Cc1cc(F)c(F)cc1F` [JANUVIA, sitagliptin phosphate hydrate], the “Cancer developed during diabetes mellitus treatment” value in data set [1] (Case (13), treated from 2017, January 2019) is given as “A bone cancer was found”.
Take `Cc1cc(N2CCN([C@@H]3CN[C@H](C(=O)N4CCSC4)C3)CC2)n(-c2ccccc2)n1` [TENELIA]: the “Cancer developed during diabetes mellitus treatment” value in data set [1] (Case (15), dialysis, used until October 2017, April 2019) is reported as “A lung cancer was developed”.
Regarding `CC#CCn1c(N2CCC[C@@H](N)C2)nc2c1c(=O)n(Cc1nc(C)c3ccccc3n1)c(=O)n2C` [Trazenta], the “Cancer developed during diabetes mellitus treatment” value in data set [1] (Case (9), used until October 2018) is listed as “A vesical cancer was developed”; in data set [1] (Case (11), 5 mg, March 2019), “A liver cancer was developed”.
For the compound `Cn1c(=O)cc(N2CCC[C@@H](N)C2)n(Cc2cc(F)ccc2C#N)c1=O` [Zafatek], in data set [3], the HbA1c was found to be 5.6%. The compound also registered a postprandial blood glucose in data set [4] (person, May 9, 2016, before metformin+BCAA was started) of 246 mg/dL.
Take `NS(=O)(=O)c1cc2c(cc1Cl)NC(C(Cl)Cl)NS2(=O)=O` (stereo not drawn) [fluitran]: in data set [5], the “Effect on the condition of diabetes mellitus” value is “worsened the condition of diabetes mellitus”.
For `CN(C)C(=N)NC(=N)N.Cl` [metformin, metformin hydrochloride], in data set [4] (Case (19), metformin 250 mg after HD, as of August 2020), the Blood sugar level result was “stable”. Moreover, the “Lung cancer by PET and MRI” value in data set [1] (Case (19), metformin 250 mg after HD from May 2019, after radiation therapy, April 2020) was “reduction of lung cancer was maintained and there was no metastasis”.
For the compound `CC(C)[C@H]1CC[C@H](C(=O)N[C@H](Cc2ccccc2)C(=O)O)CC1` [nateglinide], the Lactic acidosis entry in data set [2] is “do not cause lactic acidosis”.
